Experimental data as given in BindingDB's records for doi:10.1016/j.bmc.2012.01.022 (Florida A&M University, 2012).

How the values were obtained:
[1] = molecular target: 5-hydroxytryptamine receptor 2A (Homo sapiens, UniProt P28223); experiment: Binding affinity at 5-HT2A receptor by radioligand displacement assay
[2] = molecular target: Histamine H1 receptor (Homo sapiens, UniProt P35367); experiment: Displacement of [3H]-Pyrilamine from human histamine H1 receptor by liquid scintillation counter
Histamine H1 receptor, sequence (P35367 whole entry): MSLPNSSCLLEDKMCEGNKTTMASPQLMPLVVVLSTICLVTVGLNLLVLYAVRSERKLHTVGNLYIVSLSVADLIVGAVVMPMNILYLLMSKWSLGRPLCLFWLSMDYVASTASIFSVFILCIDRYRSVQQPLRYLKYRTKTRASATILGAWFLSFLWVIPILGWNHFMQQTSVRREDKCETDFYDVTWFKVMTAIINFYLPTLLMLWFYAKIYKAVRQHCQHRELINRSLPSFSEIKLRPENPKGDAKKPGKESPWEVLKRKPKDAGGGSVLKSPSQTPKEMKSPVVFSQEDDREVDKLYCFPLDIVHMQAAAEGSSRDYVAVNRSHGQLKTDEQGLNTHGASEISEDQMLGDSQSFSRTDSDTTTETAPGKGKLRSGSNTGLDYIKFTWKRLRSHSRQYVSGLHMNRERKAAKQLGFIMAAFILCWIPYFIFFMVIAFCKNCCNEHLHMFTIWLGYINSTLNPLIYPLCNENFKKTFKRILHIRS

[3] = molecular target: T1, 5-hydroxytryptamine receptor 2C (Homo sapiens, UniProt P28335); experiment: Binding affinity at 5-HT2C receptor by radioligand displacement assay
T1 sequence (P28335 whole entry): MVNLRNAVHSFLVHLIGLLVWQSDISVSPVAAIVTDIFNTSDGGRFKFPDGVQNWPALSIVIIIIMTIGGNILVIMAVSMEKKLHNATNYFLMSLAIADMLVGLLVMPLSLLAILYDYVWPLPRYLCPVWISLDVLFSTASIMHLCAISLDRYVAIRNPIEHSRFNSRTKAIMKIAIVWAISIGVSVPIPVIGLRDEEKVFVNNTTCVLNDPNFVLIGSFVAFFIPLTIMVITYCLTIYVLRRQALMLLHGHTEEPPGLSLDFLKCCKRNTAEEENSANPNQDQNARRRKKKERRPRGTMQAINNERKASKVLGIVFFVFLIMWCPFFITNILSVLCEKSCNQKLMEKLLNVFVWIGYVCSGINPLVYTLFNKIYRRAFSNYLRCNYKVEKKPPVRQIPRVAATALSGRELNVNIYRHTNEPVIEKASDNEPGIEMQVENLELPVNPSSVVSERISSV

[4] = molecular target: D(2) dopamine receptor (Homo sapiens, UniProt P14416); experiment: Displacement of [3H]-N-methylspiperone from dopamine D2 receptor expressed in human MES-23.5 cells
D(2) dopamine receptor, sequence (P14416 whole entry): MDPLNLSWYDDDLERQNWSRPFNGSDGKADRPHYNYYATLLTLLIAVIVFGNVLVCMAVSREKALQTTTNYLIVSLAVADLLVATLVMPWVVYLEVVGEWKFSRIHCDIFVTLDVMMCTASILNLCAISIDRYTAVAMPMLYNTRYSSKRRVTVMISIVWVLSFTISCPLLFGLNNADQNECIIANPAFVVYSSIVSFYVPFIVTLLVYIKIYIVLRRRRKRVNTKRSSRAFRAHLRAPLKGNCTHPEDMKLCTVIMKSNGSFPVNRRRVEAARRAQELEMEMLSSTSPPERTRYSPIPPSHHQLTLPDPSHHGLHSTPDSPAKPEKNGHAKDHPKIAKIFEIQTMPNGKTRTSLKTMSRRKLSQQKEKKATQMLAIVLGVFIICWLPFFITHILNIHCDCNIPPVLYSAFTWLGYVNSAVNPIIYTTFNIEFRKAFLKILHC

5-hydroxytryptamine receptor 2A, sequence (P28223 whole entry): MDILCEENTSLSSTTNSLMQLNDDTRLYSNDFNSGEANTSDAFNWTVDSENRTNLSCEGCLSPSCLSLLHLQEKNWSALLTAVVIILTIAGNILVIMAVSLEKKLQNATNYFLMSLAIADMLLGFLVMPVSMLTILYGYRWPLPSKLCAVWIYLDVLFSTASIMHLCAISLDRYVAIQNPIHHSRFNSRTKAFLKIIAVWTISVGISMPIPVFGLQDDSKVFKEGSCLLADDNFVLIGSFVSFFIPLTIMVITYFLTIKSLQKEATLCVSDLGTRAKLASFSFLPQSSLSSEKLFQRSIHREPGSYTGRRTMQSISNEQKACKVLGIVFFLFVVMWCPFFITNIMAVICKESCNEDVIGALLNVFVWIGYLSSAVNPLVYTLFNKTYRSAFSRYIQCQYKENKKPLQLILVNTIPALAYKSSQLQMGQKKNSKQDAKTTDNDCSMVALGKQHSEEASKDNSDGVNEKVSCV

SMILES | Ki [1] [nM] | Ki [2] [nM] | Ki [3] [nM] | Ki [4] [nM]
OC1(c2ccc(Cl)cc2)C[C@H]2CC[C@@H](C1)N2CCCCc1nc2ccccc2s1 (some centres undefined) | > 10000 | 187 | 4620 | 
O=C(CCCCN1[C@@H]2CC[C@H]1CC(O)(c1ccc(Cl)cc1)C2)c1nc2ccccc2s1 (some centres undefined) |  |  |  | 180
